This passage reports cytotoxicity results from ChEMBL document CHEMBL3507680, “University of Dundee, Gates Library screen for HepG2 cell viability”.

This data set is described as follows: Human HepG2 cell viability assay in 384 well format. Format: toxicity, cell-based. The arrangement: dose 125 nL, time 70.5 hour; cytotoxicity at 70.5 h: concentration not given beside the values. As to conditions: HepG2 cells, read-out: Inhibition.
With `COc1ccc(Br)cc1CN(C)C(C)c1nc(C(C)C)no1` (configuration not stated), the cytotoxicity at 70.5 h is -19.6%.

For `O=C(NC1CCN(c2cccc(OC(F)(F)F)c2)C1=O)C1CC1` (configuration not stated), the cytotoxicity at 70.5 h came out at 0.481%. For the compound `O=C(CS(=O)(=O)C1CCCC1)NC1CCc2nccn2C1` (configuration not stated), the cytotoxicity at 70.5 h is -9.54%. The value for `Cc1cn2c(n1)CCC(NC(=O)CNS(C)(=O)=O)C2` (configuration not stated) was -4.61%. The value for `CCCC(NC(=O)c1occc1C)c1nnn[nH]1` (configuration not stated) was -1.34%; that for `Cc1cccc(NC(=O)[C@@H]2CCCN2Cc2nnc(C(C)C)n2C)n1` was -1.83%.

`O=C(CCN1CCCC1c1cccc2c1OCCO2)N1CCOCC1` (configuration not stated): the cytotoxicity at 70.5 h is -2.76%.

For `O=C(CCc1ncc(-c2ccc(F)cc2)o1)NCCN1CCOCC1`, the cytotoxicity at 70.5 h is -3.91%.

On to `O=C(C1CC(=O)N(c2ccccc2Br)C1)N1CCN(CC(F)(F)F)CC1` (configuration not stated), for which the cytotoxicity at 70.5 h is -8.32%. In the case of `CCC(C)(C)NCc1nc(C(C)(C)NC(=O)OC(C)(C)C)no1`, the cytotoxicity at 70.5 h was -10.2%.

Consider `O=C(NCCNS(=O)(=O)c1cc(F)cc(F)c1)c1ccoc1`, for which the cytotoxicity at 70.5 h was -8.89%. As for `COc1ccccc1NC(=O)Cc1c(C)nc2c(c1C)c(=O)[nH]n2C`, the cytotoxicity at 70.5 h was -3.59%. As to `O=C(Nc1ccc(OCc2cccc(F)c2)c(F)c1)C1COCCO1` (configuration not stated), the cytotoxicity at 70.5 h was -3.19%. The value for `Cc1cc(C)cc(NC(=O)Cc2c(C)nc3c(c2C)c(=O)[nH]n3C)c1` was -0.0448%; that for `CCNC(=O)NC1CCN(c2ccc(S(=O)(=O)CC)cc2)CC1` was 0.434%; that for `COc1ncccc1NC(=O)N1CCC(c2ccc(O)cc2)CC1` was -3.42%. For `COc1ccc(CNC(=O)NC2CCN(c3ccccc3)C2=O)cc1` (configuration not stated), the cytotoxicity at 70.5 h was -4.11%.

`Cc1cnn(CC2CCCN2CC(=O)Nc2nncs2)c1` (configuration not stated): the cytotoxicity at 70.5 h is -5.64%. The value for `CCc1nc(NS(=O)(=O)c2cc(C)cc(F)c2)no1` was -0.337%; that for `CCS(=O)(=O)NCc1cc(Br)c(OC)c(OC)c1` was -8.56%; that for `Cc1ccccc1C(O)CNS(=O)(=O)Cc1cccc(C#N)c1` (configuration not stated) was -3.55%. As for `CCOCc1cccc(NC(=O)C2COCCO2)c1` (configuration not stated), the cytotoxicity at 70.5 h is -7.73%. For `O=C(NCCc1ccc(F)cc1)NC1CCCc2c1cnn2CCO` (configuration not stated) the value was -6.55%; for `CN(Cc1ccccc1)C(=O)CCNS(=O)(=O)c1cccnc1`, 11.8%; for `COc1ccc(OCC(O)CN2CCN(c3nccs3)CC2)cc1` (configuration not stated), -2.04%. As to `OC(COc1ccccc1)CN1CCN(c2nccs2)CC1` (configuration not stated), the cytotoxicity at 70.5 h was 0.888%. For the compound `Cc1ccc(CN(C)C(=O)CCNS(=O)(=O)c2cccnc2)cc1`, the cytotoxicity at 70.5 h is -7.21%. For `Cc1nc(CCNC(=O)NC2CCCc3c2cnn3CCO)cs1` (configuration not stated) the value was -9.35%. For `O=C(NCCC1=CCCCC1)NC1CCCc2c1cnn2CCO` (configuration not stated), the cytotoxicity at 70.5 h was -10.1%. For `CCCN1CCN(C(=O)c2cnn(-c3ccccc3F)c2)CC1` the value was 8.36%; for `O=C(NCCN1CCOCC1)c1cnc(Cc2ccc(F)cc2)s1`, -8.24%; for `Cc1cc(C)cc(OCC(O)CN2CCN(c3nccs3)CC2)c1` (configuration not stated), 8.55%. The value for `COC(=O)[C@H](C)NC(=O)c1cnc(Cc2ccc(F)cc2)s1` was -0.425%. With `COC(=O)C(C)(C)NC(=O)c1cnc(Cc2ccc(F)cc2)s1`, the cytotoxicity at 70.5 h was -2.02%. The value for `CCNC(=O)NCCc1csc(N2CCCC2)n1` was -9.41%; that for `Cc1sc(C(=O)O)cc1S(=O)(=O)Nc1c(F)cccc1-n1cccn1` was 18.5%. Turning to `Cc1nn(C)c(C)c1C1COCCN1c1ncncc1Br` (configuration not stated), the cytotoxicity at 70.5 h is -4.79%. For `CCN(CC1CN(CC2CCC2)CCO1)c1cccnn1` (configuration not stated) the value was -6.19%.

Turning to `COc1ccc(C(=O)N2CCOCC2c2ccc(C)o2)cc1` (configuration not stated), the cytotoxicity at 70.5 h was -9.97%.

For `Cc1ccc(C2COCCN2C(=O)c2ccc(F)c(F)c2)o1` (configuration not stated), the cytotoxicity at 70.5 h was -0.394%. With `Cc1cc(C)n(-c2ccc(N3CCC4(CC3)OCC(C)O4)nc2)n1` (configuration not stated), the cytotoxicity at 70.5 h is -8.82%. The value for `OC(CNc1cncc(OCc2ccccc2)n1)c1ccco1` (configuration not stated) was -5.66%; that for `CC(C)(C)c1cc(NC(=O)C2COCCO2)n(-c2ccccn2)n1` (configuration not stated) was -0.749%; that for `NC(=O)[C@@H]1Cc2ccccc2CN1CCc1cccs1` was -10%.

In the case of `CNC(=O)C1Cc2ccccc2CN1CCc1cccs1` (configuration not stated), the cytotoxicity at 70.5 h is -8.64%. Regarding `CC(C)(C)c1cc(NC(=O)C2CCCO2)n(-c2ccccn2)n1` (configuration not stated), the cytotoxicity at 70.5 h is -2.77%. The value for `Cc1noc(Cl)c1CC(=O)NCCOc1ccc(F)cc1F` was -0.975%; that for `CN(c1cccc2ccccc12)S(=O)(=O)c1cc(C(=O)O)cs1` was -0.615%. The value for `CCC(=O)NCC(=O)NCC(C)(C)c1cccc(Br)c1` was -5.47%; that for `Cc1noc(C)c1CNC(=O)NCCOc1ccc(F)cc1F` was -3.02%. For the compound `Cc1cc(C)n(-c2ccc(N3CCC(O)CC3)nc2)n1`, the cytotoxicity at 70.5 h is -1.96%. Turning to `CC(C)NC(=O)CN(C)C1CCN(c2ccc(Cl)cn2)CC1`, the cytotoxicity at 70.5 h was -7%. As to `CCOc1ccc(CN(C)C2CCN(c3cc(C)nn3C)C2=O)cc1` (configuration not stated), the cytotoxicity at 70.5 h is 19.7%.

For `CC(C)OCCCNC(=O)Nc1cccc2ncccc12`, the cytotoxicity at 70.5 h was -2.69%. Turning to `CC(C)(C)Cc1noc2ncc(C(=O)N3CCCSCC3)cc12`, the cytotoxicity at 70.5 h is 11.1%. With `Cc1cc(N2CCC(N(C)Cc3cccnc3)C2=O)n(C)n1` (configuration not stated), the cytotoxicity at 70.5 h is 13.5%. `Cn1cc(C(=O)Nc2cccc(F)c2)ccc1=O`: the cytotoxicity at 70.5 h amounted to 0.823%.

With `O=C(NCCNc1ccc(C(F)(F)F)cn1)c1ccoc1`, the cytotoxicity at 70.5 h was -8.13%.

On to `Cc1cc(C)cc(C2(C(=O)NCC(C)CN3CCCC3=O)CC2)c1` (configuration not stated), for which the cytotoxicity at 70.5 h is -8.76%. For the compound `Cc1ccc(C(=O)N2CCCCC2CNC(N)=O)s1` (configuration not stated), the cytotoxicity at 70.5 h is -6.25%. Take `Cc1cccc(OCC(=O)N(C)C2CCN(CC3CCOC3)CC2)c1` (configuration not stated): the cytotoxicity at 70.5 h is -9.11%. As for `CCc1cc(NC(=O)c2cccc(OCC(F)(F)F)n2)[nH]n1`, the cytotoxicity at 70.5 h was -2.9%. Turning to `COc1cccc(C(O)Cn2ncc3ncccc3c2=O)c1` (configuration not stated), the cytotoxicity at 70.5 h is -10.1%. As to `CN1CCN(S(C)(=O)=O)c2cc(F)ccc21`, the cytotoxicity at 70.5 h was -14.8%. For `CC(C#N)CNS(=O)(=O)c1ccc(Br)c(F)c1` (configuration not stated) the value was -8.29%. The value for `Cn1cc(C(=O)Nc2cccc(Oc3ccncc3)c2)ccc1=O` was -4.83%. `Cc1ccc(S(=O)(=O)NCC(C)C#N)cc1Br` (configuration not stated): the cytotoxicity at 70.5 h is -4.59%.

Turning to `CC(C)N1C(=O)CC(NC(=O)c2cc(Cl)sc2Cl)C1=O` (configuration not stated), the cytotoxicity at 70.5 h was -8.84%. For `Cc1cscc1C(=O)NC1CC(=O)N(C(C)C)C1=O` (configuration not stated) the value was -4.89%. For the compound `CN(C)c1ncncc1NC(=O)Cc1c[nH]c2ccc(F)cc12`, the cytotoxicity at 70.5 h was -2.95%. Take `COc1ncnc(N(C)C)c1NC(=O)Cc1cc(F)ccc1F`: the cytotoxicity at 70.5 h is -5.92%. For `CCc1nnc2ccc(NCC3(N4CCCCC4)CCOCC3)nn12` the value was -7.09%.

Turning to `CC1C(=O)Nc2cccnc2N1S(=O)(=O)c1ccc(C#N)c(Cl)c1` (configuration not stated), the cytotoxicity at 70.5 h was -6.2%.

Consider `CCN(Cc1ccoc1)C(=O)c1ccc(C)c(S(N)(=O)=O)c1`, for which the cytotoxicity at 70.5 h is -10.2%. As to `Cc1cc(N)nc(SC2CCCN(Cc3ccccc3)C2=O)n1` (configuration not stated), the cytotoxicity at 70.5 h is -9.67%. The value for `NC(=O)C1CCN(C(=O)c2ccccc2OCc2ccccc2Cl)CC1` was 12.3%; that for `O=S(=O)(N1CCCCCC1)N1CCc2sccc2C1` was -5.4%; that for `O=S(=O)(N1CCCCCC1)N1CCN(Cc2ccc(F)cc2Br)CC1` was -4.85%. The value for `Cc1cc(C(=O)NCCN2CCCc3ccccc32)[nH]n1` was 22.8%; that for `CN(C)c1nc(N)nc(CSCCC(=O)Nc2ccc(F)cc2)n1` was -7.07%; that for `Cc1ccc(S(=O)(=O)NCc2cnn(C)c2)c(F)c1` was -3.12%. For `Cc1nn(CC(C)C)c(N(C)C)c1CNCCC(=O)NC(C)C` the value was 23%; for `Cn1cc(NC(=O)CCCc2cccs2)c(=O)n(C)c1=O`, 5.9%; for `Cc1ncc(Cl)c(C(=O)N2CC(=O)N(C)c3ccccc32)n1`, -9.43%.

As to `CNS(=O)(=O)CC(=O)N(Cc1ccsc1)c1ccccc1`, the cytotoxicity at 70.5 h was -8.25%. The value for `COCCOCC(=O)NC(C#N)c1cc(Cl)cc(Cl)c1` (configuration not stated) was 19.4%; that for `Cn1ccnc1-c1noc(NCc2ccc3c(c2)OCCO3)n1` was 8.69%; that for `CN(C)c1nccc(N(C)Cc2nc3ccccc3n2C)n1` was 10.9%. `N#Cc1nccnc1N1CCC(Cc2ccccc2)C1` (configuration not stated): the cytotoxicity at 70.5 h was -3.44%. As to `Cc1nc(C2CCCN2Cc2cc(Cl)c3c(c2)OCCCO3)no1` (configuration not stated), the cytotoxicity at 70.5 h was -7.15%. Turning to `O=C(C1CCCN(Cc2cccc(F)c2)C1)N1CCc2sccc2C1` (configuration not stated), the cytotoxicity at 70.5 h stood at 0.518%. For `N#Cc1nccnc1N1CCC(COCc2ccccc2)C1` (configuration not stated) the value was -4.27%; for `Cc1ccc(C2CN(Cc3cnc(-c4cccnc4)s3)CCO2)o1` (configuration not stated), 7.31%. For `Cc1nc(CN(C)C(=O)NC(C)c2ccc3c(c2)OCCO3)cs1` (configuration not stated) the value was 36.4%. For `Cc1cc(F)ccc1N1CCCC(NC2CCOCC2)C1=O` (configuration not stated) the value was 31.7%; for `COC(=O)CN(C(=O)c1ccc(-n2ccnc2)cc1)C1CCCC1`, 27.9%. For the compound `CC(C)CC(NC(=O)c1ccn(C)c(=O)c1)c1ccccc1` (configuration not stated), the cytotoxicity at 70.5 h was determined as 33.2%.

As to `Cc1nc(CNC(=O)NC(C)c2ccc3c(c2)OCCO3)cs1` (configuration not stated), the cytotoxicity at 70.5 h worked out at 53.9%. The value for `Cc1nc(CNC(=O)NC(C)c2ccc3c(c2)OCCCO3)cs1` (configuration not stated) was -0.884%; that for `Cc1nn(CCO)c(C)c1CNC1CCOc2ccccc21` (configuration not stated) was -2.7%; that for `CCCC(N)CNS(=O)(=O)Cc1cccc(C#N)c1` (configuration not stated) was -3.64%. With `NC(CC1CCCCC1)c1ccccc1` (configuration not stated), the cytotoxicity at 70.5 h amounted to 5.79%.
